Assay results: patent US8338177B2, “Cell culture medium” (Lonza Biologics PLC, priority 2002, dated 2012)

Assays:
[1] = test system: GS-NS0 cell line 6A1(100)3; experiment: GS-NS0 6A1 fed-batch culture (shake flask / airlift bioreactor): growth and antibody productivity by protein A-HPLC; conditions: for single cell productivity (qp): fed-batch shake flask
Protocol: (§1) Where not specified, antibody productivity or titer was determined by protein A-HPLC.
The GS-NS0 cell line 6A1(100)3, 6A1 for short, secreting recombinant mouse/human chimeric IgG cB72.3 (Bebbington, 1992, supra) was used in all experimental settings under this section. Cell culture was either carried out in shake flask culture or in a fed-batch mode in a 101 standard airlift bioreactor, essentially as described (Bebbington, 1992). Feeds essentially comprised amino acids and carbohydrate as described above for high-density media and fermentation, respectively. Feed volume was at 4% of post-inocculation volume. Feed was initiated at a rate of 0.2 ml/Lh when viable cell density exceeded 14×10^5 cells/ml. Temperature was controlled at 36.5 degree centigrade; for airlift, air saturation was at 15%. pH was controlled at pH 7.00. Culture was inoculated at 2×10^5 viable cells/ml. Medium is serum- and essentially protein-free growth medium ProCH04-CDM (BioWhittaker) supplemented with […] methionine sulfoximine (MSX). Cells were pre-adapted to medium. […] Positively, it did prolong stationary phase upon fermentation.
Cumulative cell time (10^6 cell/h ml) was calculated by integration of the cell growth curve, essentially as described by Renard et al. (1988, Biotechnology Letters 10, 91-96).
Either sodium acetate or potassium acetate were added to shake flask culture during mid-exponential growth phase to the final concentrations stated in the respective sections of the table of FIG. 1. Cultures were counted daily by Trypan blue method and samples were taken for product analysis by means of protein A fractionation and HPLC analysis.
Duplicate cultures both for control and 10 mM sodium acetate supplemented culture were tested for viable cell concentration (determined by Trypan blue exclusion standard counting test). Feed was started at day 4. The acetate was not fed during growth phase as in FIG. 1 but was included in cell culture production medium right away to which the inocculum cells were added. […] The CCT remained essentially similar for all cultures.
Exp. 2 was conducted essentially as described above for exp. 1/FIG. 2, except that now 7.5 mM sodium acetate and a proprietary high-density culture medium was used, similar to the lipid supplemented high-density media described in EP435 911 A but distinct in employing less ethanolamine and no thioglycerole and keeping Tryptophan concentration constant at 19 mM by sensor-controlled automatic feeding. […] In contrast to exp. 1, the same maximum viable cell density could be achieved in the presence of actetate as compared to the control without acetate in the absence of any adverse effect on duration of stationary phase growth. Similarly, product concentration increased steadily over control and over time (FIG. 6).
In the permissible range, no increase in productivity could be seen at all, not even at the single cell level. The experiment was conducted essentially as described in exp. 1/FIG. 2, except that butyrate was added in the amounts shown instead of acetate. […] FIG. 9-11 show the effect of butyrate addition on CCT, antibody titer at harvest and single cell specific productivity (qp).

[2] = test system: cultured human endothelial cells; conditions: acetate at 5 mM; cited from earlier work
[3] = test system: CHO cell culture; conditions: added to medium with 1 mM sodium butyrate; lithium salts 10 mM, LPS 1 μg/ml, sodium acetate 10 mM; cited from earlier work
[4] = test system: hybridoma cell line VPM 8; experiment: VPM 8 hybridoma culture: CCT, harvest antibody titer, specific productivity
Protocol: as §1
A dose response study for addition of sodium acetate was carried out for hybridoma cell line VPM 8 (ECACC No. 93113024, European Collection of cell cultures, supra) essentially as described in exp. 3, except that VPM 8 was grown in commercial, protein-free medium CD-Hybridoma (Invitrogen/U.K.) and in that no MSX was added, since not being a GS cell line. VPM 8 is a mouse hybridoma that was generated by conventional means of cell fusion with non-secreting myeloma cells and secretes a murine IgG1 antibody.
The experiment has been carried out essentially as described in exp. 5, except that acetate was substituted with n-butyrate in the amounts stated in the figures.

[5] = 7.5 mM, high-density medium, Experiment 2
[6] = added during mid-exponential growth phase
[7] = CD-Hybridoma protein-free medium, Experiment 5

Compound: CC(=O)[O-].[Na+] [sodium acetate]
- cell growth parameters (cell growth rate and cumulative cell time) [1, 5]: only small decreases
- harvest antibody concentration [1, 5]: large increase
- productivity in fed-batch shake flask culture ([1]; 10 mM, added during mid-exponential growth phase, compared with potassium acetate at 10 mM or 15 mM): performed even better than potassium acetate
- effect on growth ([1]; Experiment 1, acetate supplementation): not to suppress growth
- Increases in protein yield ([1]; acetate-supplemented culture compared to control, Experiment 1): up to 98%
- growth suppression in terms of maximum cell density ([1]; fed-batch bioreactor, 10 mM included in production medium): No significant growth suppression
- single cell productivity (qp) [1, 6]: increased
- protein yield ([1]; grown with 10 mM acetate (control 470 mg/L)): 768 mg/L
- optimal concentration with regard to antibody yield and process robustness ([1]; proprietary high-density culture medium, Experiment 2): 7.5 mM
- expression-enhancing effect on tPA production [2]: did not differ significantly from the control
- protein yield enhancing effect in comparison to the butyrate control [3]: literally no benefit over the control
- productivity compared to non-treated control [4, 7]: enhanced productivity
- tolerance by the cells [4, 7]: tolerates acetate surprisingly easily in the mM range

Compound: lipopolysaccharide [LPS, reference compound]
- protein yield enhancing effect in comparison to the butyrate control [3]: about 4 times

Compound: CC(=O)[O-].[K+] [potassium acetate]
- single cell productivity (qp) [1, 6]: increased

Compound: CCCC(=O)[O-].[Na+] [Butyrate, sodium n-butyrate, reference compound]
- dose strongly toxic to the cells (rapid decrease of viable cell density) ([1]; Experiment 4): > 1 mM
- antibody productivity ([1]; butyrate added instead of acetate, Experiment 4): does not increase antibody productivity
- expression-enhancing effect on tPA production [2]: outstanding effect
- antibody titer ([4]; Experiment 6): not effective in increasing antibody titer
- toxicity for the cell line ([4]; Experiment 6): exceptional toxicity

Compound: CCCCC(=O)O [valerate]
- expression-enhancing effect on tPA production [2]: found to have such effect

Compound: CCC(=O)O [proprionate]
- expression-enhancing effect on tPA production [2]: found to have such effect

Compound: [Cl-].[Li+] [LiCl, reference compound]
- modification of the effect of acetate addition ([1]; feed supplemented to final approx. 1-10 mM, data not shown): did not prove to modify the effect of acetate addition in any way
